# Columns and labels:
# [1] = molecular target: Dual specificity mitogen-activated protein kinase kinase 1 (Homo sapiens, UniProt Q02750); test: Inhibition of MEK1 (unknown origin)
# Caco-2 = test: Cytotoxicity against human Caco2 cells compound treated for 6 hrs measured 48 hrs post washout by MTT assay; format: functional, cell-based
# PA-1 = test: Cytotoxicity against human PA1 cells compound treated for 6 hrs measured 48 hrs post washout by MTT assay; format: functional, cell-based
# WRL68 = test: Cytotoxicity against human WRL68 cells compound treated for 6 hrs measured 48 hrs post washout by MTT assay; format: functional, cell-based
# MCF7 [2] = test: Cytotoxicity against human MCF7 cells compound treated for 6 hrs measured 48 hrs post washout by MTT assay; format: functional, cell-based
# [3] = Cytotoxicity against human KB403 cells compound treated for 6 hrs measured 48 hrs post washout by MTT assay; format: functional, cell-based
# HepG2 = test: Cytotoxicity against human HepG2 cells by MTT assay; format: functional, cell-based
# P388 = test: Cytotoxicity against mouse P388 cells by MTT assay; format: functional; settings: read-out: ED50 (the source's name)
# MCF7 [4] = test: Cytotoxicity against human MCF7 cells by MTT assay; format: functional, cell-based
# COLO 205 = test: Cytotoxicity against human COLO205 cells by MTT assay; format: functional, cell-based
# [5] = Cytotoxicity against mouse SVEC cells by MTT assay; format: functional, cell-based
# Chain of Dual specificity mitogen-activated protein kinase kinase 1 (Q02750 whole entry): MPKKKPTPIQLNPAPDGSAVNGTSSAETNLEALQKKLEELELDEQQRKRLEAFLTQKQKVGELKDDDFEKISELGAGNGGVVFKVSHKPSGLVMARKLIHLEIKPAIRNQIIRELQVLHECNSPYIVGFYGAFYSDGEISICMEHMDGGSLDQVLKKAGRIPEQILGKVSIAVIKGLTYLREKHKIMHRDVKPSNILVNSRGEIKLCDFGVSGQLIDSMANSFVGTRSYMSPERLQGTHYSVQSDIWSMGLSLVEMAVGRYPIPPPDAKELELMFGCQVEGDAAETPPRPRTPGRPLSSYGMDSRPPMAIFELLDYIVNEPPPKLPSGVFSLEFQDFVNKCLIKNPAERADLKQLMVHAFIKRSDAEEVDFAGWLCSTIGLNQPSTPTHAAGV
Structure (SMILES),IC50 [1],IC50 (Caco-2),IC50 (PA-1),IC50 (WRL68),IC50 (MCF7 [2]),IC50 [3],IC50 (HepG2),EC50 (P388),IC50 (MCF7 [4]),IC50 (COLO 205),IC50 [5]
Nc1nc(C2CCNC(=O)c3[nH]c(Br)c(Br)c32)c[nH]1 (centres undefined),0.006 µM,–,–,–,–,–,–,–,–,–,–
Cn1c(-c2cc(=O)c3ccccc3o2)cc(Br)c1Br,–,≥ 100 µM,0.6 µM,≥ 100 µM,≥ 100 µM,0.67 µM,–,–,–,–,–
Cn1c(-c2cc(-c3ccccc3)no2)cc(Br)c1Br,–,16.6 µM,≥ 100 µM,≥ 100 µM,≥ 100 µM,≥ 100 µM,–,–,–,–,–
Cn1c(-c2cc(-c3ccc[nH]3)no2)cc(Br)c1Br,–,≥ 100 µM,≥ 100 µM,≥ 100 µM,≥ 100 µM,3.1 µM,–,–,–,–,–
Cn1c(-c2cc(-c3ccccc3O)no2)cc(Br)c1Br,–,≥ 100 µM,≥ 100 µM,≥ 100 µM,≥ 100 µM,2.45 µM,–,–,–,–,–
Brc1cc(-c2cc(-c3ccc[nH]3)no2)[nH]c1Br,–,≥ 100 µM,≥ 100 µM,≥ 100 µM,≥ 100 µM,4.82 µM,–,–,–,–,–
Oc1ccccc1-c1cc(-c2cc(Br)c(Br)[nH]2)on1,–,≥ 100 µM,≥ 100 µM,≥ 100 µM,≥ 100 µM,16.4 µM,–,–,–,–,–
COC(=O)C(NCC(=O)c1cc(Br)c(Br)[nH]1)C(C)C (centres undefined),–,–,–,–,–,–,15.3 µg/mL,–,–,–,–
COC(=O)C[C@H]1CNC(=O)c2cc(Br)c(Br)n21,–,–,–,–,–,–,–,30 µg/mL,–,–,–
O=C(/C=C/c1cccc(Cl)c1)c1ccccc1,–,–,–,–,–,–,–,–,5.25 µg/mL,–,–
O=c1cc(C2CCCCC2)oc2ccccc12,–,–,–,–,–,–,2.9 µM,–,–,–,–
c1ccc(-c2cc(COc3ccccc3-c3nc4ccccc4s3)on2)cc1,–,–,–,–,–,–,–,–,–,14.2 µM,–
COc1cc(-c2cc(-c3cc(OC)c(OC)c(OC)c3)on2)ccc1O,–,–,–,–,–,–,–,–,–,–,23.5 µM
Cn1c(/C=C/C(=O)c2ccccc2O)cc(Br)c1Br,–,3.16 µM,1.25 µM,0.33 µM,2.51 µM,8.32 µM,–,–,–,–,–
Cn1c(/C=C/C(=O)c2ccccc2)cc(Br)c1Br,–,≥ 100 µM,≥ 100 µM,≥ 100 µM,35.4 µM,≥ 100 µM,–,–,–,–,–
Cn1c(/C=C/C(=O)c2ccc[nH]2)cc(Br)c1Br,–,≥ 100 µM,0.73 µM,2.11 µM,0.45 µM,0.6 µM,–,–,–,–,–

Structure (SMILES),IC50 [1],IC50 (Caco-2),IC50 (PA-1),IC50 (WRL68),IC50 (MCF7 [2]),IC50 [3],IC50 (HepG2),EC50 (P388),IC50 (MCF7 [4]),IC50 (COLO 205),IC50 [5]
COc1ccc(C(=O)/C=C/c2cc(Br)c(Br)n2C)c(OC)c1,–,≥ 100 µM,0.52 µM,0.64 µM,0.08 µM,≥ 100 µM,–,–,–,–,–
COc1ccc(OC)c(C(=O)/C=C/c2cc(Br)c(Br)n2C)c1,–,≥ 100 µM,0.8 µM,3.27 µM,0.65 µM,≥ 100 µM,–,–,–,–,–
Cn1c(/C=C/C(=O)c2ccc(Cl)cc2Cl)cc(Br)c1Br,–,≥ 100 µM,1 µM,14.7 µM,1.84 µM,≥ 100 µM,–,–,–,–,–
Cn1c(/C=C/C(=O)c2cccc(O)c2)cc(Br)c1Br,–,≥ 100 µM,≥ 100 µM,≥ 100 µM,12.8 µM,≥ 100 µM,–,–,–,–,–
Cn1c(/C=C/C(=O)c2ccc(O)cc2O)cc(Br)c1Br,–,3.53 µM,0.83 µM,0.18 µM,1.61 µM,12 µM,–,–,–,–,–
Cn1c(/C=C/C(=O)c2ccc(O)cc2)cc(Br)c1Br,–,6 µM,2.85 µM,1.91 µM,3.12 µM,≥ 100 µM,–,–,–,–,–
Cn1c(/C=C/C(=O)c2cc(O)ccc2O)cc(Br)c1Br,–,≥ 100 µM,0.38 µM,0.88 µM,0.32 µM,≥ 100 µM,–,–,–,–,–
Cn1c(/C=C/C(=O)c2cccc(N)c2)cc(Br)c1Br,–,≥ 100 µM,≥ 100 µM,≥ 100 µM,12.4 µM,≥ 100 µM,–,–,–,–,–
O=C(/C=C/c1cc(Br)c(Br)[nH]1)c1ccccc1O,–,≥ 100 µM,0.33 µM,1.42 µM,1.49 µM,≥ 100 µM,–,–,–,–,–
O=C(/C=C/c1cc(Br)c(Br)[nH]1)c1ccccc1,–,≥ 100 µM,≥ 100 µM,≥ 100 µM,12.2 µM,≥ 100 µM,–,–,–,–,–
O=C(/C=C/c1cc(Br)c(Br)[nH]1)c1ccc[nH]1,–,≥ 100 µM,0.5 µM,≥ 100 µM,0.072 µM,≥ 100 µM,–,–,–,–,–
COc1ccc(C(=O)/C=C/c2cc(Br)c(Br)[nH]2)c(OC)c1,–,≥ 100 µM,0.32 µM,9.22 µM,0.03 µM,≥ 100 µM,–,–,–,–,–
COc1ccc(OC)c(C(=O)/C=C/c2cc(Br)c(Br)[nH]2)c1,–,≥ 100 µM,0.42 µM,12.3 µM,0.22 µM,≥ 100 µM,–,–,–,–,–
O=c1cc(-c2cc(Br)c(Br)[nH]2)oc2ccccc12,–,≥ 100 µM,0.41 µM,≥ 100 µM,≥ 100 µM,1.28 µM,–,–,–,–,–
CC(=O)O[C@H]1C(=O)[C@@]2(C)[C@H]([C@H](OC(=O)c3ccccc3)[C@]3(O)C[C@H](OC(=O)[C@H](O)[C@@H](NC(=O)c4ccccc4)c4ccccc4)C(C)=C1C3(C)C)[C@]1(OC(C)=O)CO[C@@H]1C[C@@H]2O [PACLITAXEL],–,–,0.008 µM,–,–,0.001 µM,–,–,–,–,–

# Source: ChEMBL document CHEMBL2375212, “Synthesis and evaluation of novel marine bromopyrrole alkaloid-based hybrids as anticancer agents” (Eur J Med Chem, 2013)
